Laboratory results taken from patent US9290459B1, “Substituted bicyclic dihydropyrimidinones and their use as inhibitors of neutrophil elastase activity” (Boehringer Ingelheim International GmbH, priority 2013, dated 2016).

Target: Human neutrophil elastase (Homo sapiens (Human), UniProt P08246)
Test: Human Neutrophil Elastase Assay
Type: biochemical
Conditions: human neutrophil elastase, substrate MeOSuc-Ala-Ala-Pro-Val-AMC 250 μM, pH 7.5; read-out: IC50

Human neutrophil elastase, sequence (P08246 30-247): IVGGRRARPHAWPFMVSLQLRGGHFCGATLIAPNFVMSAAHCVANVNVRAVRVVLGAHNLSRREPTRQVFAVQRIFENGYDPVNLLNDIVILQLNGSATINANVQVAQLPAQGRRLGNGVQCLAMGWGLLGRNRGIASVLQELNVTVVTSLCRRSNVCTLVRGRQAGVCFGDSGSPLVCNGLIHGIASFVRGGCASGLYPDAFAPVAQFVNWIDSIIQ

Row | SMILES | IC50 [nM]
1 | CS(=O)(=O)c1cc(C#N)ccc1C1C2=C(CCC2=O)N(c2cccc(C(F)(F)F)c2)C(=O)N1S(C)(=O)=O (centres unmarked) [Example 37.3] | 1.9
2 | COc1cc(C#N)ccc1C1C2=C(CCC2=O)N(c2cccc(C(F)(F)F)c2)C(=O)N1C (centres unmarked) [Example 26.3] | 9.5
3 | N#Cc1ccc(C2NC(=O)N(c3cccc(C(F)(F)F)c3)C3=C2C(=O)CC3)c(Br)c1 (centres unmarked) [Example 13, 3-Bromo-4-(2,5-dioxo-1-(3-(trifluoromethyl)phenyl)-2,3,4,5,6,7-hexahydro-1H-cyclopenta[d]pyrimidin-4-yl)benzonitrile] | 17.9
4 | CS(=O)(=O)c1cc(C#N)ccc1[C@@H]1C2=C(CCC2=O)N(c2cccc(C(F)(F)F)c2)C(=O)N1C(=O)N[C@H]1CC[C@H](O)C1 [Example 48.4] | < 1
5 | CCNC(=O)N1C(=O)N(c2cccc(C(F)(F)F)c2)C2=C(C(=O)CC2)C1c1ccc(C#N)cc1Cl (centres unmarked) [Example 51.2] | < 1
6 | N#Cc1ccc(C2C3=C(CCC3=O)N(c3cccc(C(F)(F)F)c3)C(=O)N2CC(=O)N2CCSCC2)cc1 (centres unmarked) [Example 6, 4-(2,5-Dioxo-3-(2-oxo-2-thiomorpholinoethyl)-1-(3-(trifluoromethyl)phenyl)-2,3,4,5,6,7-hexahydro-1H-cyclopenta[d]pyrimidin-4-yl)benzonitrile] | 3
7 | CN(C)C(=O)N1C(=O)N(c2cccc(C(F)(F)F)c2)C2=C(C(=O)CC2)C1c1ccc(C#N)cc1 (centres unmarked) [Example 7, 4-(4-Cyanophenyl)-N,N-dimethyl-2,5-dioxo-1-(3-(trifluoromethyl)phenyl)-4,5,6,7-tetrahydro-1H-cyclopenta[d]pyrimidine-3(2H)-carboxamide] | 124
8 | N#Cc1ccc(C2C3=C(CCC3=O)N(c3cccc(C(F)(F)F)c3)C(=O)N2CC(=O)O)cc1 (centres unmarked) [Example 4, 2-(4-(4-Cyanophenyl)-2,5-dioxo-1-(3-(trifluoromethyl)phenyl)-6,7-dihydro-1H-cyclopenta[d]pyrimidin-3(2H,4H,5H)-yl)acetic acid] | 10.9
9 | CS(=O)(=O)c1cc(C#N)ccc1C1NC(=O)N(c2cccc(C(F)(F)F)c2)C2=C1C(=O)CC2 (centres unmarked) [Example 10, 4-(2,5-Dioxo-1-(3-(trifluoromethyl)phenyl)-2,3,4,5,6,7-hexahydro-1H-cyclopenta[d]pyrimidin-4-yl)-3-(methylsulfonyl)benzonitrile] | 5.8
10 | CNC(=O)N1C(=O)N(c2cccc(C(F)(F)F)c2)C2=C(C(=O)CC2)C1c1ccc(C#N)cc1C (centres unmarked) [Example 50.2] | < 1
11 | CCNC(=O)N1C(=O)N(c2cccc(C(F)(F)F)c2)C2=C(C(=O)CC2)C1c1ccc(C#N)cc1[S+](C)[O-] (centres unmarked) [Example 51.4] | < 1
12 | CC(C(=O)NCCO)N1C(=O)N(c2cccc(C(F)(F)F)c2)C2=C(C(=O)CC2)C1c1ccc(C#N)cc1 (centres unmarked) [Example 20, 2-(4-(4-Cyanophenyl)-2,5-dioxo-1-(3-(trifluoromethyl)phenyl)-6,7-dihydro-1H-cyclopenta[d]pyrimidin-3(2H,4H,5H)-yl)-N-(2-hydroxyethyl)propanamide] | 9.1
13 | CS(=O)(=O)c1cc(C#N)ccc1[C@@H]1C2=C(CCC2=O)N(c2cccc(C(F)(F)F)c2)C(=O)N1C(=O)N[C@H]1CCCC[C@@H]1O [Example 47.21] | < 1
14 | N#Cc1ccc(C2C3=C(CCC3=O)N(c3cccc(C(F)(F)F)c3)C(=O)N2C(=O)NC2CCS(=N)(=O)CC2)cc1 (centres unmarked) [Example 44, 4-(4-Cyanophenyl)-2,5-dioxo-N-(1-imino-1-oxo-hexahydro-1λ^6-thiopyran-4-yl)-1-(3-(trifluoromethyl)phenyl)-4,5,6,7-tetrahydro-1H-cyclopenta[d]pyrimidine-3(2H)-carboxamide] | < 1
15 | CNC(=O)N1C(=O)N(c2cccc(C(F)(F)F)c2)C2=C(C(=O)CC2)[C@@H]1c1ccc(C#N)cc1F [Example 49B, (R)-4-(4-Cyano-2-fluorophenyl)-N-methyl-2,5-dioxo-1-(3-(trifluoromethyl)phenyl)-4,5,6,7-tetrahydro-1H-cyclopenta[d]pyrimidine-3(2H)-carboxamide] | 173
16 | CS(=O)(=O)c1cc(C#N)ccc1C1C2=C(CCC2=O)N(c2cccc(C(F)(F)F)c2)C(=O)N1CC1CCOCC1 (centres unmarked) [Example 24.5] | 1.7
17 | COc1cc(C#N)ccc1C1NC(=O)N(c2cccc(C(F)(F)F)c2)C2=C1C(=O)CC2 (centres unmarked) [Example 15.1] | 42.1
18 | Cc1cc(C#N)ccc1C1C2=C(CCC2=O)N(c2cccc(C(F)(F)F)c2)C(=O)N1S(C)(=O)=O (centres unmarked) [Example 37.1] | 3.7
19 | Cc1cc(C#N)ccc1C1NC(=O)N(c2cccc(C(F)(F)F)c2)C2=C1C(=O)CC2 (centres unmarked) [Example 15.2] | 28.6
20 | CC(C)(O)CNC(=O)N1C(=O)N(c2cccc(C(F)(F)F)c2)C2=C(C(=O)CC2)C1c1ccc(C#N)cc1 (centres unmarked) [Example 41, 4-(4-Cyanophenyl)-N-(2-hydroxy-2-methylpropyl)-2,5-dioxo-1-(3-(trifluoromethyl)-phenyl)-4,5,6,7-tetrahydro-1H-cyclopenta[d]pyrimidine-3(2H)-carboxamide] | 1.4
21 | N#Cc1ccc(C2NC(=O)N(c3ccnc(C(F)(F)F)c3)C3=C2C(=O)CC3)cc1 (centres unmarked) [Example 15.5, 4-(2,5-Dioxo-1-(2-(tri-fluoromethyl)pyridin-4-yl)-2,3,4,5,6,7-hexahydro-1H-cyclopenta[d]pyrimidin-4-yl)benzonitrile] | 110

Row | SMILES | IC50 [nM]
22 | COCCNC(=O)N1C(=O)N(c2cccc(C(F)(F)F)c2)C2=C(C(=O)CC2)C1c1ccc(C#N)cc1F (centres unmarked) [Example 49.2] | 1.3
23 | COCCNC(=O)N1C(=O)N(c2cccc(C(F)F)c2)C2=C(C(=O)CC2)C1c1ccc(C#N)cc1 (centres unmarked) [Example 52.4] | < 1
24 | CC(C)(O)CNC(=O)N1C(=O)N(c2cccc(C(F)(F)F)c2)C2=C(C(=O)CC2)[C@@H]1c1ccc(C#N)cc1 [Example 41B, (S)-4-(4-Cyanophenyl)-N-(2-hydroxy-2-methylpropyl)-2,5-dioxo-1-(3-(trifluoro-methyl)phenyl)-4,5,6,7-tetrahydro-1H-cyclopenta[d]pyrimidine-3(2H)-carboxamide] | 40.4
25 | N#Cc1ccc(C2C3=C(CCC3=O)N(c3cccc(C(F)(F)F)c3)C(=O)N2C(N)=O)cc1 (centres unmarked) [Example 40, 4-(4-Cyanophenyl)-2,5-dioxo-1-(3-(trifluoromethyl)phenyl)-4,5,6,7-tetrahydro-1H-cyclopenta[d]pyrimidine-3(2H)-carboxamide] | 2.2
26 | CNC(=O)N1C(=O)N(c2cccc(C(F)(F)F)c2)C2=C(C(=O)CC2)C1c1ccc(C#N)cc1Br (centres unmarked) [Example 50.6] | 1.2
27 | CS(=O)(=O)N1C(=O)N(c2ccnc(C(F)(F)F)c2)C2=C(C(=O)CC2)C1c1ccc(C#N)cc1 (centres unmarked) [Example 57, 4-(3-(Methylsulfonyl)-2,5-dioxo-1-(2-(trifluoromethyl)pyridin-4-yl)-2,3,4,5,6,7-hexahydro-1H-cyclopenta[d]pyrimidin-4-yl)benzonitrile] | 34.9
28 | CCNC(=O)N1C(=O)N(c2ccnc(C(F)(F)F)c2)C2=C(C(=O)CC2)C1c1ccc(C#N)cc1S(C)(=O)=O (racemic) [Example 56.2] | < 1
29 | CN1C(=O)N(c2cccc(C(F)(F)F)c2)C2=C(C(=O)CC2)C1c1ccc(C#N)cc1Br (centres unmarked) [Example 27.2] | 7.1
30 | Cc1cc(C#N)ccc1C1C2=C(CCC2=O)N(c2cccc(C(F)(F)F)c2)C(=O)N1C (centres unmarked) [Example 26.2] | 6.4
31 | CS(=O)(=O)c1cc(C#N)ccc1[C@@H]1C2=C(CCC2=O)N(c2cccc(C(F)(F)F)c2)C(=O)N1C(=O)NCC1(O)CCC1 [Example 47.17] | < 1
32 | CN1C(=O)N(c2cccc(C(F)F)c2)C2=C(C(=O)CC2)C1c1ccc(C#N)cc1S(C)(=O)=O (centres unmarked) [Example 27, 4-(1-(3-(Difluoromethyl)phenyl)-3-methyl-2,5-dioxo-2,3,4,5,6,7-hexahydro-1H-cyclopenta[d]pyrimidin-4-yl)-3-(methylsulfonyl)benzonitrile] | 1.9
33 | CCS(=O)(=O)c1cc(C#N)ccc1[C@@H]1NC(=O)N(c2cccc(C(F)(F)F)c2)C2=C1C(=O)CC2 [Example 14B, (R)-4-(2,5-Dioxo-1-(3-(trifluoromethyl)phenyl)-2,3,4,5,6,7-hexahydro-1H-cyclopenta[d]pyrimidin-4-yl)-3-(ethylsulfonyl)benzonitrile] | 33
34 | COC(=O)CCCS(=O)(=O)N1C(=O)N(c2cccc(C(F)(F)F)c2)C2=C(C(=O)CC2)C1c1ccc(C#N)cc1 (centres unmarked) [Example 34, Methyl 4-(4-(4-Cyanophenyl)-2,5-dioxo-1-(3-(trifluoromethyl)phenyl)-6,7-dihydro-1H-cyclopenta[d]pyrimidin-3(2H,4H,5H)-ylsulfonyl)butanoate] | 3.2
35 | CS(=O)(=O)c1cc(C#N)ccc1[C@@H]1NC(=O)N(c2cccc(C(F)F)c2)C2=C1C(=O)CC2 [Example 15.4B, (R)-4-(1-(3-(Difluoromethyl)phenyl)-2,5-dioxo-2,3,4,5,6,7-hexahydro-1H-cyclopenta[d]pyrimidin-4-yl)-3-(methylsulfonyl)benzonitrile] | 57.7
36 | N#Cc1ccc(C2NC(=O)N(c3cccc(C(F)(F)F)c3)C3=C2C(=O)CC3)nc1 (centres unmarked) [Example 15.3, 6-(2,5-dioxo-1-(3-(trifluoromethyl)phenyl)-2,3,4,5,6,7-hexahydro-1H-cyclopenta[d]pyrimidin-4-yl)nicotinonitrile] | 106
37 | CNC(=O)N1C(=O)N(c2cccc(C(F)(F)F)c2)C2=C(C(=O)CC2)C1c1ccc(C#N)cc1[S+](C)[O-] (centres unmarked) [Example 50.5] | < 1
38 | CS(=O)(=O)c1cc(C#N)ccc1[C@@H]1NC(=O)N(c2cccc(C(F)(F)F)c2)C2=C1C(=O)CC2 [Example 10B, (R)-4-(2,5-Dioxo-1-(3-(trifluoromethyl)phenyl)-2,3,4,5,6,7-hexahydro-1H-cyclopenta[d]pyrimidin-4-yl)-3-(methylsulfonyl)benzonitrile] | 98.4
39 | N#Cc1ccc([C@@H]2NC(=O)N(c3cccc(C(F)(F)F)c3)C3=C2C(=O)CC3)nc1 [Example 15.3B, (R)-6-(2,5-Dioxo-1-(3-(trifluoromethyl)phenyl)-2,3,4,5,6,7-hexahydro-1H-cyclopenta[d]pyrimidin-4-yl)nicotinonitrile] | 1720
40 | COc1cc(C#N)ccc1C1C2=C(CCC2=O)N(c2cccc(C(F)(F)F)c2)C(=O)N1S(C)(=O)=O (centres unmarked) [Example 38.2] | 34.1
41 | CS(=O)(=O)c1cc(C#N)ccc1[C@@H]1C2=C(CCC2=O)N(c2cccc(C(F)(F)F)c2)C(=O)N1C(=O)NC1C2CC1C2 (some centres unmarked) [Example 48.2] | < 1
